Assays:
Experiment in all cases: relative viability (nuclei count vs DMSO), 5 days (fraction); higher = more cells survive
ABC-1 = tested on: ABC-1
Method in brief: (§1)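 For relative viability, nuclei counts in treated wells were divided by those in vehicle wells. Lung cancer cell lines had been pin-tool dosed in 1536-well plates the day after seeding and cultured for 5 days, then fixed and stained in one step (final 0.05% Triton X-100, 1% formaldehyde, 1 ug/ml Hoechst) and imaged at 4×. Doses were one drug alone or a fixed anchor-drug dose plus five library-drug doses (not always all listed) in √10 steps, and values are duplicate-plate medians.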

COR-L23 = tested on: COR-L23
Method in brief: as §1

ChaGo-K-1 = tested on: ChaGo-K-1
Method in brief: as §1

EPLC-272H = tested on: EPLC-272H
Method in brief: as §1

HCC-15 = tested on: HCC-15
Method in brief: as §1

HCC-366 = tested on: HCC-366
Method in brief: as §1

HCC-827 = tested on: HCC-827
Method in brief: as §1

LCLC-103H = tested on: LCLC-103H
Method in brief: as §1

NCI-H1355 = tested on: NCI-H1355
Method in brief: as §1

NCI-H1734 = tested on: NCI-H1734
Method in brief: as §1

NCI-H1793 = tested on: NCI-H1793
Method in brief: as §1

NCI-H1944 = tested on: NCI-H1944
Method in brief: as §1

NCI-H2009 = tested on: NCI-H2009
Method in brief: as §1

NCI-H2023 = tested on: NCI-H2023
Method in brief: as §1

NCI-H2085 = tested on: NCI-H2085
Method in brief: as §1

NCI-H2228 = tested on: NCI-H2228
Method in brief: as §1

NCI-H2347 = tested on: NCI-H2347
Method in brief: as §1

NCI-H2405 = tested on: NCI-H2405
Method in brief: as §1

NCI-H3122 = tested on: NCI-H3122
Method in brief: as §1

PC-14 = tested on: PC-14
Method in brief: as §1

SW 1573 = tested on: SW 1573
Method in brief: as §1

Compound: CN1CCN(CCOc2cc(OC3CCOCC3)c3c(Nc4c(Cl)ccc5c4OCO5)ncnc3c2)CC1 [Saracatinib] + COc1cc2c(Oc3ccc(NC(=O)C4(C(=O)Nc5ccc(F)cc5)CC4)cc3F)ccnc2cc1OCCCN1CCOCC1 [Foretinib] (partner 0.25 µM)
- relative viability (ABC-1; first compound 0.02 µM): 1.08
- relative viability (ABC-1; first compound 0.2 µM): 0.975
- relative viability (ABC-1; first compound 0.6325 µM): 0.998
- relative viability (ABC-1; first compound 2 µM): 1.01
- relative viability (COR-L23; first compound 0.02 µM): 0.905
- relative viability (COR-L23; first compound 0.2 µM): 0.917
- relative viability (COR-L23; first compound 0.6325 µM): 0.87
- relative viability (COR-L23; first compound 2 µM): 0.886
- relative viability (ChaGo-K-1; first compound 0.02 µM): 0.943
- relative viability (ChaGo-K-1; first compound 0.2 µM): 0.699
- relative viability (ChaGo-K-1; first compound 0.6325 µM): 0.973
- relative viability (ChaGo-K-1; first compound 2 µM): 0.874
- relative viability (EPLC-272H; first compound 0.02 µM): 0.403
- relative viability (EPLC-272H; first compound 0.2 µM): 0.73
- relative viability (EPLC-272H; first compound 0.6325 µM): 0.646
- relative viability (EPLC-272H; first compound 2 µM): 0.435
- relative viability (HCC-15; first compound 0.02 µM): 1.14
- relative viability (HCC-15; first compound 0.2 µM): 0.975
- relative viability (HCC-15; first compound 0.6325 µM): 1.12
- relative viability (HCC-15; first compound 2 µM): 1.05
- relative viability (HCC-366; first compound 0.02 µM): 0.896
- relative viability (HCC-366; first compound 0.6325 µM): 0.844
- relative viability (HCC-366; first compound 2 µM): 0.531
- relative viability (HCC-827; first compound 0.02 µM): 1.08
- relative viability (HCC-827; first compound 0.2 µM): 0.452
- relative viability (HCC-827; first compound 0.6325 µM): 0.193
- relative viability (HCC-827; first compound 2 µM): 0.17
- relative viability (LCLC-103H; first compound 0.02 µM): 0.698
- relative viability (LCLC-103H; first compound 0.2 µM): 0.669
- relative viability (LCLC-103H; first compound 0.6325 µM): 0.742
- relative viability (LCLC-103H; first compound 2 µM): 0.572
- relative viability (NCI-H1355; first compound 0.02 µM): 0.965
- relative viability (NCI-H1355; first compound 0.2 µM): 0.991
- relative viability (NCI-H1355; first compound 0.6325 µM): 1.1
- relative viability (NCI-H1355; first compound 2 µM): 0.934
- relative viability (NCI-H1734; first compound 0.02 µM): 0.852
- relative viability (NCI-H1734; first compound 0.6325 µM): 0.805
- relative viability (NCI-H1734; first compound 2 µM): 0.605
- relative viability (NCI-H1793; first compound 0.02 µM): 0.685
- relative viability (NCI-H1793; first compound 0.6325 µM): 0.777
- relative viability (NCI-H1793; first compound 2 µM): 0.454
- relative viability (NCI-H1944; first compound 0.02 µM): 0.868
- relative viability (NCI-H1944; first compound 0.6325 µM): 0.935
- relative viability (NCI-H1944; first compound 2 µM): 0.549
- relative viability (NCI-H2009; first compound 0.02 µM): 1.22
- relative viability (NCI-H2009; first compound 0.2 µM): 1.14
- relative viability (NCI-H2009; first compound 0.6325 µM): 0.951
- relative viability (NCI-H2009; first compound 2 µM): 1.03
- relative viability (NCI-H2023; first compound 0.02 µM): 0.953
- relative viability (NCI-H2023; first compound 0.2 µM): 0.873
- relative viability (NCI-H2023; first compound 0.6325 µM): 0.656
- relative viability (NCI-H2023; first compound 2 µM): 0.531
- relative viability (NCI-H2085; first compound 0.02 µM): 0.986
- relative viability (NCI-H2085; first compound 0.2 µM): 0.839
- relative viability (NCI-H2085; first compound 0.6325 µM): 0.751
- relative viability (NCI-H2085; first compound 2 µM): 0.668
- relative viability (NCI-H2228; first compound 0.02 µM): 0.765
- relative viability (NCI-H2228; first compound 0.2 µM): 0.733
- relative viability (NCI-H2228; first compound 0.6325 µM): 0.873
- relative viability (NCI-H2228; first compound 2 µM): 0.591
- relative viability (NCI-H2347; first compound 0.02 µM): 1.32
- relative viability (NCI-H2347; first compound 0.2 µM): 0.852
- relative viability (NCI-H2347; first compound 0.6325 µM): 0.469
- relative viability (NCI-H2347; first compound 2 µM): 0.712
- relative viability (NCI-H2405; first compound 0.02 µM): 1.03
- relative viability (NCI-H2405; first compound 0.2 µM): 0.94
- relative viability (NCI-H2405; first compound 0.6325 µM): 0.98
- relative viability (NCI-H2405; first compound 2 µM): 0.658
- relative viability (NCI-H3122; first compound 0.02 µM): 0.927
- relative viability (NCI-H3122; first compound 0.2 µM): 0.891
- relative viability (NCI-H3122; first compound 0.6325 µM): 0.9
- relative viability (NCI-H3122; first compound 2 µM): 0.66
- relative viability (PC-14; first compound 0.02 µM): 0.986
- relative viability (PC-14; first compound 0.2 µM): 0.721
- relative viability (PC-14; first compound 0.6325 µM): 0.612
- relative viability (PC-14; first compound 2 µM): 0.209
- relative viability (SW 1573; first compound 0.02 µM): 0.895
- relative viability (SW 1573; first compound 0.2 µM): 0.711
- relative viability (SW 1573; first compound 0.6325 µM): 1.14
- relative viability (SW 1573; first compound 2 µM): 0.792
